# PubChem BioAssay (NCI)
#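 Cultured in 96-well plates, cells were exposed to test compound for 48 hours across five concentrations. Definition used: TGI = concentration required for complete inhibition of growth.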
# What was measured:
# Test in all cases: NCI tumour cell line growth inhibition, 48 h
# IGROV1 ovarian = test system: IGROV1 ovarian
# NCI/ADR-RES ovarian = test system: NCI/ADR-RES ovarian
# ACHN renal = test system: ACHN renal
# OVCAR-8 ovarian = test system: OVCAR-8 ovarian
# BT-549 breast = test system: BT-549 breast
# OVCAR-3 ovarian = test system: OVCAR-3 ovarian
# HCT-15 colon = test system: HCT-15 colon
# SK-MEL-2 melanoma = test system: SK-MEL-2 melanoma
# SK-MEL-28 melanoma = test system: SK-MEL-28 melanoma
# EKVX NSCLC = test system: EKVX NSCLC
# M14 melanoma = test system: M14 melanoma
# LOX IMVI melanoma = test system: LOX IMVI melanoma
# MDA-MB-231 breast = test system: MDA-MB-231 breast
# HCC-2998 colon = test system: HCC-2998 colon
# COLO 205 colon = test system: COLO 205 colon
# HL-60(TB) leukemia = test system: HL-60(TB) leukemia
# SNB-75 CNS = test system: SNB-75 CNS
# HCT-116 colon = test system: HCT-116 colon
# SN12C renal = test system: SN12C renal
# RXF 393 renal = test system: RXF 393 renal
# RPMI-8226 leukemia = test system: RPMI-8226 leukemia
# T-47D breast = test system: T-47D breast
# UO-31 renal = test system: UO-31 renal
# OVCAR-4 ovarian = test system: OVCAR-4 ovarian
# HOP-62 NSCLC = test system: HOP-62 NSCLC
# DU-145 prostate = test system: DU-145 prostate
# NCI-H226 lung = test system: NCI-H226 lung
# A498 renal = test system: A498 renal
# HOP-92 NSCLC = test system: HOP-92 NSCLC
# OVCAR-5 ovarian = test system: OVCAR-5 ovarian
# NCI-H23 lung = test system: NCI-H23 lung
# MOLT-4 leukemia = test system: MOLT-4 leukemia
# TK-10 renal = test system: TK-10 renal
# PC-3 prostate = test system: PC-3 prostate
# U251 CNS = test system: U251 CNS
# CCRF-CEM leukemia = test system: CCRF-CEM leukemia
# SK-OV-3 ovarian = test system: SK-OV-3 ovarian
# NCI-H522 lung = test system: NCI-H522 lung
# 786-0 renal = test system: 786-0 renal
# UACC-62 melanoma = test system: UACC-62 melanoma
# SF-295 CNS = test system: SF-295 CNS
# SW-620 colon = test system: SW-620 colon
# SF-268 CNS = test system: SF-268 CNS
# HT29 colon = test system: HT29 colon
# HS 578T breast = test system: HS 578T breast
# KM12 colon = test system: KM12 colon
# NCI-H460 lung = test system: NCI-H460 lung
# SK-MEL-5 melanoma = test system: SK-MEL-5 melanoma
# SR leukemia = test system: SR leukemia
# SNB-19 CNS = test system: SNB-19 CNS
# A549 NSCLC = test system: A549 NSCLC
# MDA-N = test system: MDA-N
# UACC-257 melanoma = test system: UACC-257 melanoma
# CAKI-1 renal = test system: CAKI-1 renal
# K-562 leukemia = test system: K-562 leukemia
# MDA-MB-435 = test system: MDA-MB-435
# MALME-3M melanoma = test system: MALME-3M melanoma
# SF-539 CNS = test system: SF-539 CNS
smiles,measurement,setting,value
CC1(C)OC(=O)N(c2ccccc2)C12C=Cc1cc([N+](=O)[O-])ccc1O2 (stereo not given),TGI,IGROV1 ovarian,> 100 µM
same,TGI,NCI/ADR-RES ovarian,> 100 µM
same,TGI,ACHN renal,> 100 µM
same,TGI,OVCAR-8 ovarian,> 100 µM
same,TGI,BT-549 breast,> 100 µM
same,TGI,OVCAR-3 ovarian,> 100 µM
same,TGI,HCT-15 colon,> 100 µM
same,TGI,SK-MEL-2 melanoma,> 100 µM
same,TGI,SK-MEL-28 melanoma,> 100 µM
same,TGI,EKVX NSCLC,98.7 µM
same,TGI,M14 melanoma,> 100 µM
same,TGI,LOX IMVI melanoma,> 100 µM
same,TGI,MDA-MB-231 breast,80.4 µM
same,TGI,HCC-2998 colon,> 100 µM
same,TGI,COLO 205 colon,> 100 µM
same,TGI,HL-60(TB) leukemia,63.7 µM
same,TGI,SNB-75 CNS,> 100 µM
same,TGI,HCT-116 colon,> 100 µM
same,TGI,SN12C renal,> 100 µM
same,TGI,RXF 393 renal,> 100 µM
same,TGI,RPMI-8226 leukemia,> 100 µM
same,TGI,T-47D breast,86.9 µM
same,TGI,UO-31 renal,> 100 µM
same,TGI,OVCAR-4 ovarian,> 100 µM
same,TGI,HOP-62 NSCLC,> 100 µM
same,TGI,DU-145 prostate,> 100 µM
same,TGI,NCI-H226 lung,> 100 µM
same,TGI,A498 renal,> 100 µM
same,TGI,HOP-92 NSCLC,86.9 µM
same,TGI,OVCAR-5 ovarian,> 100 µM
same,TGI,NCI-H23 lung,> 100 µM
same,TGI,MOLT-4 leukemia,84.9 µM
same,TGI,TK-10 renal,> 100 µM
same,TGI,PC-3 prostate,> 100 µM
same,TGI,U251 CNS,> 100 µM
same,TGI,CCRF-CEM leukemia,99 µM
same,TGI,SK-OV-3 ovarian,66.4 µM
same,TGI,NCI-H522 lung,> 100 µM
same,TGI,786-0 renal,> 100 µM
same,TGI,UACC-62 melanoma,> 100 µM
same,TGI,SF-295 CNS,> 100 µM
same,TGI,SW-620 colon,> 100 µM
same,TGI,SF-268 CNS,> 100 µM
same,TGI,HT29 colon,> 100 µM
same,TGI,HS 578T breast,> 100 µM
same,TGI,KM12 colon,> 100 µM
same,TGI,NCI-H460 lung,> 100 µM
same,TGI,SK-MEL-5 melanoma,> 100 µM
same,TGI,SR leukemia,75.3 µM
same,TGI,SNB-19 CNS,> 100 µM
same,TGI,A549 NSCLC,> 100 µM
same,TGI,MDA-N,50.8 µM
same,TGI,UACC-257 melanoma,77 µM
same,TGI,CAKI-1 renal,> 100 µM
same,TGI,K-562 leukemia,> 100 µM
same,TGI,MDA-MB-435,62.8 µM
N#Cc1[nH]c(=O)n(-c2ccccc2)c1N,TGI,IGROV1 ovarian,> 10 µM
same,TGI,NCI/ADR-RES ovarian,> 10 µM
same,TGI,ACHN renal,> 10 µM
same,TGI,OVCAR-8 ovarian,> 10 µM
same,TGI,OVCAR-3 ovarian,> 10 µM
same,TGI,HCT-15 colon,> 10 µM
same,TGI,SK-MEL-2 melanoma,> 10 µM
same,TGI,SK-MEL-28 melanoma,> 10 µM
same,TGI,EKVX NSCLC,> 10 µM
same,TGI,M14 melanoma,> 10 µM
same,TGI,LOX IMVI melanoma,1.58 µM
same,TGI,MDA-MB-231 breast,> 10 µM
same,TGI,HCC-2998 colon,> 10 µM
same,TGI,COLO 205 colon,> 10 µM
same,TGI,HL-60(TB) leukemia,> 10 µM
same,TGI,SNB-75 CNS,> 10 µM
same,TGI,HCT-116 colon,> 10 µM
same,TGI,SN12C renal,> 10 µM
same,TGI,RXF 393 renal,> 10 µM
same,TGI,RPMI-8226 leukemia,> 10 µM
same,TGI,T-47D breast,> 10 µM
same,TGI,UO-31 renal,> 10 µM
same,TGI,OVCAR-4 ovarian,> 10 µM
same,TGI,HOP-62 NSCLC,> 10 µM
same,TGI,DU-145 prostate,> 10 µM
same,TGI,MALME-3M melanoma,> 10 µM
same,TGI,NCI-H226 lung,> 10 µM
same,TGI,A498 renal,> 10 µM
same,TGI,OVCAR-5 ovarian,> 10 µM
same,TGI,NCI-H23 lung,> 10 µM
same,TGI,MOLT-4 leukemia,> 10 µM
same,TGI,TK-10 renal,> 10 µM
same,TGI,PC-3 prostate,> 10 µM
same,TGI,U251 CNS,> 10 µM
same,TGI,CCRF-CEM leukemia,> 10 µM
same,TGI,SK-OV-3 ovarian,> 10 µM
same,TGI,786-0 renal,> 10 µM
same,TGI,UACC-62 melanoma,> 10 µM
same,TGI,SF-295 CNS,3.72 µM
same,TGI,SW-620 colon,> 10 µM
same,TGI,SF-268 CNS,> 10 µM
same,TGI,HT29 colon,> 10 µM
same,TGI,HS 578T breast,> 10 µM
same,TGI,KM12 colon,> 10 µM
same,TGI,SF-539 CNS,> 10 µM
same,TGI,NCI-H460 lung,> 10 µM
same,TGI,SK-MEL-5 melanoma,> 10 µM
same,TGI,SR leukemia,> 10 µM
same,TGI,SNB-19 CNS,> 10 µM
same,TGI,A549 NSCLC,> 10 µM
same,TGI,MDA-N,> 10 µM
same,TGI,UACC-257 melanoma,> 10 µM
same,TGI,K-562 leukemia,> 10 µM
same,TGI,MDA-MB-435,> 10 µM
